Laboratory results as given in ChEMBL document CHEMBL4043065, “Simplifying nature: Towards the design of broad spectrum kinetoplastid inhibitors, inspired by acetogenins” (Bioorg Med Chem, 2017).

Tests used:
HeLa [1] = assay: Cytotoxicity against human HeLa cells after 64 hrs by Alamar blue assay; format: cell-based
Trypanosoma brucei [2] = assay: Trypanocidal activity against Trypanosoma brucei 427 blood stream forms after 64 hrs by Alamar blue assay; format: functional; conditions: Trypanosoma brucei, 427, 64 h
Leishmania major = assay: Antileishmanial activity against Leishmania major MHOM/IL/80/Friedlin promastigotes after 72 hrs by Alamar blue assay; format: functional
Trypanosoma cruzi = assay: Trypanocidal activity against Trypanosoma cruzi strain CL Brener epimastogoes after 64 hrs by Alamar blue assay; format: functional
Trypanosoma brucei [3] = assay: Trypanocidal activity against Trypanosoma brucei 427 procyclic forms after 64 hrs by Alamar blue assay; format: functional; conditions: Trypanosoma brucei, 427, 64 h
Vero = assay: Cytotoxicity against African green monkey Vero cells after 72 hrs by Alamar blue assay; format: cell-based; conditions: Chlorocebus sabaeus
HeLa [4] = assay: Cytotoxicity against human HeLa cells; format: cell-based
Trypanosoma brucei [5] = assay: Trypanocidal activity against Trypanosoma brucei blood stream forms; format: functional

SMILES | EC50 (HeLa [1]) [µM] | EC50 (Trypanosoma brucei [2]) [µM] | EC50 (Leishmania major) [µM] | EC50 (Trypanosoma cruzi) [µM] | EC50 (Trypanosoma brucei [3]) [µM] | EC50 (Vero) [µM] | EC50 (HeLa [4]) [µM] | EC50 (Trypanosoma brucei [5]) [µM]
Cn1cccc1C(=O)NCCCCCCOCCCC[C@H]1CCC[C@@H](Cn2cc([C@@H]3CCC[C@H](CCCCOCc4ccccc4)O3)nn2)O1 | 177 | 4.6 | 16.3 | > 500 | 5 | – | – | –
COCCCCCCNC(=O)c1ccco1 | > 500 | 113 | > 500 | > 500 | 124 | – | – | –
O=C(NCCCCCCOCCCC[C@H]1CCC[C@@H](Cn2cc([C@@H]3CCC[C@H](CCCCOCc4ccccc4)O3)nn2)O1)c1cocn1 | 21.9 | 8.4 | 21.6 | 18.3 | 9.9 | 26.6 | – | –
OCCCCCCOCCCC[C@H]1CCC[C@@H](Cn2cc([C@@H]3CCC[C@H](CCCCOCc4ccccc4)O3)nn2)O1 | 21.6 | 3.5 | 12.4 | 27.3 | 3.8 | – | – | –
C[C@H]1C=C(CCCCCCCCCC[C@H]2CCC[C@@H](c3cn(C[C@@H]4CCC[C@H](CCCCOCc5ccccc5)O4)nn3)O2)C(=O)O1 | – | – | – | – | – | – | 2.1 | 5.2
CCCCCC[C@H]1CCC[C@@H](Cn2cc([C@@H]3CCC[C@H](CCCCO)O3)nn2)O1 | – | – | – | – | – | – | 7 | 1.8
O=C(NCCCCCCOCCCC[C@H]1CCC[C@@H](Cn2cc([C@@H]3CCC[C@H](CCCCOCc4ccccc4)O3)nn2)O1)c1ccsc1 | > 500 | 5.8 | 15.2 | > 500 | 5 | > 500 | – | –
Cc1cc(C(=O)NCCCCCCOCCCC[C@H]2CCC[C@@H](Cn3cc([C@@H]4CCC[C@H](CCCCOCc5ccccc5)O4)nn3)O2)oc1C | > 100 | 4.6 | 72.3 | 135 | 3.9 | – | – | –
O=C(NCCCCCCOCCCC[C@H]1CCC[C@@H](Cn2cc([C@@H]3CCC[C@H](CCCCOCc4ccccc4)O3)nn2)O1)c1cccs1 | > 500 | 5.1 | > 500 | > 500 | 4.8 | – | – | –
NCCCCCCOCCCC[C@H]1CCC[C@@H](Cn2cc([C@@H]3CCC[C@H](CCCCOCc4ccccc4)O3)nn2)O1 | 8.1 | 5.8 | 19.2 | 16.7 | 9.1 | – | – | –
Cn1nccc1C(=O)NCCCCCCOCCCC[C@H]1CCC[C@@H](Cn2cc([C@@H]3CCC[C@H](CCCCOCc4ccccc4)O3)nn2)O1 | > 100 | 6.1 | 28.7 | 81.8 | 5.5 | – | – | –
COCCCCCCNC(=O)c1ccnn1C | > 250 | 107 | > 500 | > 500 | 47.4 | – | – | –
CCCCCC[C@H]1CCC[C@@H](Cn2cc([C@@H]3CCC[C@H](CCCCCCCCCCC4=C[C@H](C)OC4=O)O3)nn2)O1 | – | – | – | – | – | – | > 1000 | > 500
c1ccc(COCCCCCCOCCCC[C@H]2CCC[C@@H](Cn3cc([C@@H]4CCC[C@H](CCCCOCc5ccccc5)O4)nn3)O2)cc1 | > 20 | 4.3 | 411 | > 500 | 29 | – | – | –
Cc1ccoc1C(=O)NCCCCCCOCCCC[C@H]1CCC[C@@H](Cn2cc([C@@H]3CCC[C@H](CCCCOCc4ccccc4)O3)nn2)O1 | 112 | 4.7 | 67.8 | > 500 | 2.5 | – | – | –
COCCCCCCNC(=O)c1ccc([N+](=O)[O-])o1 | 4.1 | 0.73 | 21 | 8 | 0.37 | 15.8 | – | –
O=C(NCCCCCCOCCCC[C@H]1CCC[C@@H](Cn2cc([C@@H]3CCC[C@H](CCCCOCc4ccccc4)O3)nn2)O1)c1ccc[nH]1 | > 100 | 5 | > 500 | > 500 | 4.6 | – | – | –
O=C(NCCCCCCOCCCC[C@H]1CCC[C@@H](Cn2cc([C@@H]3CCC[C@H](CCCCOCc4ccccc4)O3)nn2)O1)c1ccc(Cl)o1 | > 500 | 4.5 | > 500 | > 500 | 3.8 | – | – | –
O=C(NCCCCCCOCCCC[C@H]1CCC[C@@H](Cn2cc([C@@H]3CCC[C@H](CCCCOCc4ccccc4)O3)nn2)O1)c1cscn1 | > 100 | 5.7 | 21.8 | 12.6 | 5.8 | – | – | –
O=C(NCCCCCCOCCCC[C@H]1CCC[C@@H](Cn2cc([C@@H]3CCC[C@H](CCCCOCc4ccccc4)O3)nn2)O1)c1ccccc1 | > 250 | 4.4 | > 500 | > 500 | 4.3 | – | – | –
O=C(NCCCCCCOCCCC[C@H]1CCC[C@@H](Cn2cc([C@@H]3CCC[C@H](CCCCOCc4ccccc4)O3)nn2)O1)c1ccoc1 | > 500 | 3.9 | 15.2 | > 500 | 5.4 | > 500 | – | –
O=C(NCCCCCCOCCCC[C@H]1CCC[C@@H](Cn2cc([C@@H]3CCC[C@H](CCCCOCc4ccccc4)O3)nn2)O1)c1ccco1 | > 500 | 3.8 | 7.8 | 8 | 5 | > 500 | – | –
OCCCCCCOCCCC[C@H]1CCC[C@@H](Cn2cc([C@@H]3CCC[C@H](CCCCO)O3)nn2)O1 | 6.5 to 69.3 | 37.7 | 123 | 230 | 56.3 | – | – | –
Cc1nc(C(=O)NCCCCCCOCCCC[C@H]2CCC[C@@H](Cn3cc([C@@H]4CCC[C@H](CCCCOCc5ccccc5)O4)nn3)O2)co1 | 19.9 | 8 | 21.5 | 12.1 | 7.1 | 13.6 | – | –
O=C(NCCCCCCOCCCC[C@H]1CCC[C@@H](Cn2cc([C@@H]3CCC[C@H](CCCCOCc4ccccc4)O3)nn2)O1)c1ccc([N+](=O)[O-])o1 | 0.38 | 0.037 | 11.2 | 3.1 | 0.1 | 4.5 | – | –
Cc1ccc(C(=O)NCCCCCCOCCCC[C@H]2CCC[C@@H](Cn3cc([C@@H]4CCC[C@H](CCCCOCc5ccccc5)O4)nn3)O2)o1 | 42.7 | 4.7 to 4.9 | 16.1 | 187 | 3.1 | – | – | –
